Tests used:
[1] = species: Rattus norvegicus; format: toxicity, organism-based, Sprague-Dawley; details: in vivo, po, 24 h, route oral GAVAGE, time 1 day
Description: DrugMatrix - Regimen: Single

[2] = species: Rattus norvegicus; assay: DrugMatrix - Regimen: Daily Repeat; format: toxicity, organism-based, Sprague-Dawley; design: regimen Daily Repeat, gender Male, age 6-8 weeks; details: in vivo, po, […], route oral GAVAGE, time 14 day
[3] = 0 mg/kg, tissue Blood, dose level Control, vehicle 100 % WATER
[4] = 0 mg/kg, tissue Plasma, dose level Control, vehicle 100 % WATER
[5] = 330 mg/kg, tissue Blood, dose level High, vehicle .5 % CMC
[6] = 330 mg/kg, tissue Plasma, dose level High, vehicle .5 % CMC

c1ccncc1 [PYRIDINE]
ABSOLUTE EOSINOPHIL [1, 3]: 91.83 CELLS/uL
ABSOLUTE LYMPHOCYTE [1, 3]: 13862.33 CELLS/uL
ABSOLUTE MONOCYTE [1, 3]: 437.83 CELLS/uL
ABSOLUTE SEGMENTED NEUTROPHIL [1, 3]: 1358 CELLS/uL
BASOPHIL [1, 3]: 0%
EOSINOPHIL [1, 3]: 0.5%
ERYTHROCYTE COUNT [1, 3]: 5.12 x10E6/uL
HEMATOCRIT [1, 3]: 31.77%
HEMOGLOBIN [1, 3]: 11.8 G/DL
LEUKOCYTE COUNT [1, 3]: 15.75 x10E3/uL
LYMPHOCYTE [1, 3]: 88.33%
MEAN CORPUSCULAR HEMOGLOBIN [1, 3]: 23.07 pg
MEAN CORPUSCULAR HEMOGLOBIN CONCENTRATION [1, 3]: 37.17 G/DL
MEAN CORPUSCULAR VOLUME [1, 3]: 62.15 fL
MONOCYTE [1, 3]: 2.67%
NEUTROPHIL [1, 3]: 8.5%
NUCLEATED RED BLOOD CELLS [1, 3]: 0 /100WBC
PLATELET COUNT [1, 3]: 1113.83 x10E3/uL
ALANINE AMINOTRANSFERASE [1, 4]: 45.5 u/L
ALBUMIN [1, 4]: 4.07 G/DL
ALKALINE PHOSPHATASE [1, 4]: 343.83 u/L
ASPARTATE AMINOTRANSFERASE [1, 4]: 70.67 u/L
BLOOD UREA NITROGEN [1, 4]: 13 mg/dL
CARBON DIOXIDE [1, 4]: 33 mmol/L
CHLORIDE [1, 4]: 100.33 MEQ/L
CHOLESTEROL [1, 4]: 76.67 mg/dL
CREATININE [1, 4]: 0.12 mg/dL
GLUCOSE [1, 4]: 148.67 mg/dL
LACTATE DEHYDROGENASE [1, 4]: 116.67 u/L
LIPASE [1, 4]: 8 u/L
PHOSPHORUS [1, 4]: 12.58 mg/dL
POTASSIUM [1, 4]: 6.33 MEQ/L
SODIUM [1, 4]: 142.88 MEQ/L
TOTAL BILIRUBIN [1, 4]: 0.18 mg/dL
TOTAL PROTEIN [1, 4]: 5.77 G/DL
URIC ACID [1, 4]: 1.27 mg/dL
ABSOLUTE BASOPHIL [2, 3]: 0 CELLS/uL
ABSOLUTE EOSINOPHIL [2, 3]: 117.17 CELLS/uL
ABSOLUTE LYMPHOCYTE [2, 3]: 12774.17 CELLS/uL
ABSOLUTE MONOCYTE [2, 3]: 419 CELLS/uL
ABSOLUTE SEGMENTED NEUTROPHIL [2, 3]: 2139.67 CELLS/uL
BASOPHIL [2, 3]: 0%
EOSINOPHIL [2, 3]: 0.67%
ERYTHROCYTE COUNT [2, 3]: 6.61 x10E6/uL
HEMATOCRIT [2, 3]: 37.58%
HEMOGLOBIN [2, 3]: 13.8 G/DL
LEUKOCYTE COUNT [2, 3]: 15.45 x10E3/uL
LYMPHOCYTE [2, 3]: 83%
MEAN CORPUSCULAR HEMOGLOBIN [2, 3]: 20.87 pg
MEAN CORPUSCULAR HEMOGLOBIN CONCENTRATION [2, 3]: 36.72 G/DL
MEAN CORPUSCULAR VOLUME [2, 3]: 56.85 fL
MONOCYTE [2, 3]: 2.67%
NEUTROPHIL [2, 3]: 13.67%
NUCLEATED RED BLOOD CELLS [2, 3]: 0 /100WBC
PLATELET COUNT [2, 3]: 1108.33 x10E3/uL
ALANINE AMINOTRANSFERASE [2, 4]: 56.83 u/L
ALBUMIN [2, 4]: 4.18 G/DL
ALKALINE PHOSPHATASE [2, 4]: 354.33 u/L
ASPARTATE AMINOTRANSFERASE [2, 4]: 93.33 u/L
BLOOD UREA NITROGEN [2, 4]: 16.67 mg/dL
CARBON DIOXIDE [2, 4]: 27.83 mmol/L
CHLORIDE [2, 4]: 102.17 MEQ/L
CHOLESTEROL [2, 4]: 62.33 mg/dL
CREATININE [2, 4]: 0.2 mg/dL
GLUCOSE [2, 4]: 137 mg/dL
LACTATE DEHYDROGENASE [2, 4]: 407 u/L
LIPASE [2, 4]: 10.83 u/L
PHOSPHORUS [2, 4]: 11.45 mg/dL
POTASSIUM [2, 4]: 6.51 MEQ/L
SODIUM [2, 4]: 145.57 MEQ/L
TOTAL BILIRUBIN [2, 4]: 0.2 mg/dL
TOTAL PROTEIN [2, 4]: 6.3 G/DL
URIC ACID [2, 4]: 1.93 mg/dL

FERROCENE
ABSOLUTE EOSINOPHIL [1, 5]: 50.33 CELLS/uL
ABSOLUTE LYMPHOCYTE [1, 5]: 10757 CELLS/uL
ABSOLUTE MONOCYTE [1, 5]: 373 CELLS/uL
ABSOLUTE SEGMENTED NEUTROPHIL [1, 5]: 1253 CELLS/uL
BASOPHIL [1, 5]: 0%
EOSINOPHIL [1, 5]: 0.33%
ERYTHROCYTE COUNT [1, 5]: 5.36 x10E6/uL
HEMATOCRIT [1, 5]: 33.23%
HEMOGLOBIN [1, 5]: 12.53 G/DL
LEUKOCYTE COUNT [1, 5]: 12.43 x10E3/uL
LYMPHOCYTE [1, 5]: 87%
MEAN CORPUSCULAR HEMOGLOBIN [1, 5]: 23.47 pg
MEAN CORPUSCULAR HEMOGLOBIN CONCENTRATION [1, 5]: 37.7 G/DL
MONOCYTE [1, 5]: 3%
NEUTROPHIL [1, 5]: 9.67%
NUCLEATED RED BLOOD CELLS [1, 5]: 0 /100WBC
PLATELET COUNT [1, 5]: 1189.67 x10E3/uL
ALANINE AMINOTRANSFERASE [1, 6]: 42.67 u/L
ALBUMIN [1, 6]: 4.5 G/DL
ALKALINE PHOSPHATASE [1, 6]: 371.33 u/L
ASPARTATE AMINOTRANSFERASE [1, 6]: 77 u/L
BLOOD UREA NITROGEN [1, 6]: 11.67 mg/dL
CARBON DIOXIDE [1, 6]: 26.33 mmol/L
CREATININE [1, 6]: 0.18 mg/dL
LACTATE DEHYDROGENASE [1, 6]: 127.67 u/L
LIPASE [1, 6]: 8.33 u/L
PHOSPHORUS [1, 6]: 12.47 mg/dL
POTASSIUM [1, 6]: 6.09 MEQ/L
TOTAL BILIRUBIN [1, 6]: 0.13 mg/dL
TOTAL PROTEIN [1, 6]: 6.33 G/DL
URIC ACID [1, 6]: 1.03 mg/dL
ABSOLUTE BASOPHIL [2, 5]: 0 CELLS/uL
ABSOLUTE EOSINOPHIL [2, 5]: 150.8 CELLS/uL
ABSOLUTE LYMPHOCYTE [2, 5]: 17564.8 CELLS/uL
ABSOLUTE MONOCYTE [2, 5]: 546.8 CELLS/uL
ABSOLUTE SEGMENTED NEUTROPHIL [2, 5]: 2837.6 CELLS/uL
BASOPHIL [2, 5]: 0%
EOSINOPHIL [2, 5]: 0.8%
ERYTHROCYTE COUNT [2, 5]: 5.16 x10E6/uL
HEMATOCRIT [2, 5]: 32.2%
HEMOGLOBIN [2, 5]: 11.86 G/DL
LEUKOCYTE COUNT [2, 5]: 21.1 x10E3/uL
LYMPHOCYTE [2, 5]: 83.2%
MEAN CORPUSCULAR HEMOGLOBIN [2, 5]: 23.1 pg
MEAN CORPUSCULAR HEMOGLOBIN CONCENTRATION [2, 5]: 36.82 G/DL
MONOCYTE [2, 5]: 2.6%
NEUTROPHIL [2, 5]: 13.4%
NUCLEATED RED BLOOD CELLS [2, 5]: 0 /100WBC
PLATELET COUNT [2, 5]: 1348 x10E3/uL
ALANINE AMINOTRANSFERASE [2, 6]: 39.6 u/L
ALBUMIN [2, 6]: 4.42 G/DL
ALKALINE PHOSPHATASE [2, 6]: 217.6 u/L
ASPARTATE AMINOTRANSFERASE [2, 6]: 59.8 u/L
BLOOD UREA NITROGEN [2, 6]: 15.2 mg/dL
CARBON DIOXIDE [2, 6]: 25 mmol/L
CHOLESTEROL [2, 6]: 87.2 mg/dL
CREATININE [2, 6]: 0.19 mg/dL
GLUCOSE [2, 6]: 182.6 mg/dL
LIPASE [2, 6]: 10.2 u/L
PHOSPHORUS [2, 6]: 12.74 mg/dL
TOTAL BILIRUBIN [2, 6]: 0.22 mg/dL
TOTAL PROTEIN [2, 6]: 6.84 G/DL
URIC ACID [2, 6]: 2.68 mg/dL

From ChEMBL document CHEMBL3885881, “DrugMatrix”
